Assay results reported in patent publication US12033725B2, “Antimicrobial peptides and related methods” (GEORGE MASON UNIVERSITY, priority 2021, dated 2024).
Values after ≈ are worked out from the molar mass of the structure shown. “Also recorded” adds a separate entry of the source. Like-named read-outs stand apart in the source and are kept apart here. Bridge positions count the residues as written; N and C are the ends. Ends that are not written are not given here. Peptide text beside a SMILES is read from it.

Key:
[1] = tested on: human red blood cells
Method: To measure the hemolytic activity of peptides, 2% human red blood cells were added to various dilutions of peptide reconstituted in PBS in a sterile U-bottom polystyrene 96 well plate (Dean et al., 2011). The commercially obtained, deidentified human RBCs (BIOIVT Westbury, NY) were prepared as follows: 1 mL of K2EDTA whole blood from a healthy donor was centrifuged at 1,600 g for 10 min and plasma was discarded. The remaining RBCs were washed 4 times with 1 ml 1×PBS (HyClone), then the pallet after the last wash was resuspended with 750 ul of 1×PBS. 2% RBCs suspension was prepared by adding 200 ul of washed cells to 9.8 mL of 1×PBS. […] of 2% RBCs were added to each well (n=3) containing diluted peptides resulting in final peptide concentration of 100, 10, and 1 μg/ml. 2% RBCs with 1×PBS alone served as the negative control (No peptide), and 2% RBC in deionized water as the positive control, leading to full lysis. The plate was incubated for 1 h at 37 C and then centrifuged at 1,000 rpm for 2 min. The supernatant was transferred to a fresh regular 96 well plate and read at OD540 as previously reported (Dean et al., 2011). Student's t-test was used to determine whether points were statistically significant.

[2] = tested on: E. coli 4157; test: Antibacterial screening at 100 μg/ml; type: cell-based, Escherichia coli; settings: peptide 100 μg/ml
Method: (§1) Staphylococcus aureus ATCC 33592 (MDR) and BAA-1718, E. coli ATCC 51659 (MDR) and 4,157 were purchased from the American Type Culture Collection (Manassas, VA, United States). All strains are reference strains. Bacteria were grown in Tryptic Soy Broth (BD 211825), except E. coli 4157 which was grown in Nutrient Broth (Difco 234000), overnight in a shaking incubator (37 C). Bacteria were aliquoted, mixed with glycerol (final concentration of 20% of glycerol) and frozen at −80 C and enumerated via serial dilution and plating prior to experimentation.
(§2) The antibacterial screening test of the peptides (n=3) was first determined at a final peptide concentration of 100 μg/ml and a final bacterial concentration of 5×10^5 CFU/mL in Difco Mueller Hinton Broth (BD 275730) in a 96 well plate. The plate was incubated for 16-20 h at 37 C and then read on a spectrophotometer at OD600 nm. […] Wells containing medium only were used as sterility control, in the wells around the edge of the plates. LL-37 was used as a control in the first run of experiments against the MDR bacterial strains (Turner et al., 1998). […] The sequence of BF-CATH was derived from DBAASP database listed as cathelicidin-BF-34 with the following sequence: […]

[3] = tested on: E. coli O157:H7 51659; test: Antibacterial screening at 100 μg/ml; type: cell-based, Escherichia coli; settings: for bactericidal activity: 100 μg/ml, MDR E. coli
Method: as §1, §2

[4] = tested on: E. coli 4157; type: cell-based, Escherichia coli
Method: as §1
(§3) The full range MIC activity testing of the peptides was then determined as previously reported using the Mueller Hinton Broth (BD 275730) in a 96 well plate following the CLSI protocol (Wiegand et al., 2008). Enumerated bacteria were diluted in MHB and 50 ul of 1×10^6 CFU/mL (5×10^4 CFU) was added to each well with 50 ul of a decreasing series of twofold peptide concentration. The plate was incubated for 16-20 h at 37 C and then read on a spectrophotometer at OD600 nm.

[5] = tested on: S. aureus 33592; type: cell-based, Staphylococcus aureus; settings: MDR S. aureus (MRSA) 33592, Mueller Hinton Broth
Method: as §1, §3

[6] = tested on: S. aureus BAA-1718; type: cell-based, Staphylococcus aureus; settings: antibiotic susceptible S. aureus BAA-1718, Mueller Hinton Broth
Method: as §1, §3

[7] = tested on: E. coli O157:H7 51659; test: EC50 antimicrobial activity assay (low salt, 10 mM sodium phosphate); type: cell-based, Escherichia coli; settings: MDR E. coli, 3 h
Method: as §1
The antimicrobial activity of the PHNX peptides and LL-37 (AnaSpec 61302) against bacteria was determined as previously described (Barksdale et al., 2016, 2017). […] Serial dilutions were then prepared in 1× Dulbecco's PBS and 8 ul of each dilution was spotted in triplicate on Tryptic Soy Agar plates, which were incubated (37 C, 24 h) and CFUs were counted (Barksdale et al., 2016, 2017). Bacterial survival at each peptide concentration was calculated based on the ratio of the number of colonies on each experimental plate and the average number of colonies observed for assay cultures lacking peptide. […] EC50 values were determined by fitting the data from the antimicrobial assays to a standard sigmoidal dose-response curve. […]

[8] = tested on: S. aureus MRSA 33592; type: cell-based, Staphylococcus aureus; settings: low salt, 10 mM sodium phosphate, 3 h
Method: as §1
The antimicrobial activity of the PHNX peptides and LL-37 (AnaSpec 61302) against bacteria was determined as previously described (Barksdale et al., 2016, 2017). Briefly, 1×10^5 CFU per well of bacteria were incubated with different peptide concentrations (n=3) in a 50-ul solution of 10 mM sodium phosphate buffer (3 h, 37 C). Serial dilutions were then prepared in 1× Dulbecco's PBS and 8 ul of each dilution was spotted in triplicate on Tryptic Soy Agar plates, which were incubated (37 C, 24 h) and CFUs were counted (Barksdale et al., 2016, 2017). Bacterial survival at each peptide concentration was calculated based on the ratio of the number of colonies on each experimental plate and the average number of colonies observed for assay cultures lacking peptide. The peptide concentration required to kill 50% of the viable bacteria in the assay cultures (EC5O) was determined by plotting percent survival as a function of the log of peptide concentration (log μg/ml) and fitting the data using GraphPad Prism 6 (GraphPad Software Inc., San Diego, CA, United States). For the purpose of graphing, samples that had no peptide (0 μg/ml) are plotted at 1×10^−7 μg/ml peptide. EC50 values were determined by fitting the data from the antimicrobial assays to a standard sigmoidal dose-response curve. […] Wells containing only 10 mM sodium phosphate buffer were used as sterility control.

[9] = tested on: MDR E. coli 51659; type: cell-based, Escherichia coli; settings: MDR E. coli O157:H7 51659, Mueller Hinton Broth (high salt)
Method: as §1, §3

[10] = tested on: S. aureus MRSA 33592; test: Antibacterial screening at 100 μg/ml; type: cell-based, Staphylococcus aureus; settings: MDR S. aureus
Method: as §1, §2

[11] = tested on: E. coli ATCC 25922; settings: E. coli ATCC 25922 (Wang et al., 2008); cited from earlier work
[12] = peptide 1 μg/ml, 2% human RBCs (EDTA), 1 h

For `CC[C@H](C)[C@H](NC(=O)[C@H](CCCCN)NC(=O)[C@H](CCC(=O)O)NC(=O)[C@H](CCCCN)NC(=O)[C@H](CO)NC(=O)[C@H](CCCCN)NC(=O)[C@H](CCCNC(=N)N)NC(=O)[C@H](Cc1ccccc1)NC(=O)[C@H](Cc1ccccc1)NC(=O)[C@H](CC(=O)O)NC(=O)CNC(=O)[C@H](CC(C)C)NC(=O)[C@@H](N)CC(C)C)C(=O)NCC(=O)N[C@@H](CCCCN)C(=O)N[C@@H](CCC(=O)O)C(=O)N[C@@H](Cc1ccccc1)C(=O)N[C@@H](CCCCN)C(=O)N[C@@H](CCCNC(=N)N)C(=O)N[C@H](C(=O)N[C@H](C(=O)N[C@@H](CCC(N)=O)C(=O)N[C@@H](CCCNC(=N)N)C(=O)N[C@H](C(=O)N[C@@H](CCCCN)C(=O)N[C@@H](CC(=O)O)C(=O)N[C@@H](Cc1ccccc1)C(=O)N[C@@H](CC(C)C)C(=O)N[C@@H](CCCNC(=N)N)C(=O)N[C@@H](CC(N)=O)C(=O)N[C@@H](CC(C)C)C(=O)N[C@H](C(=O)N1CCC[C@H]1C(=O)N[C@@H](CCCNC(=N)N)C(=O)N[C@H](C(=O)N[C@@H](CCC(=O)O)C(=O)N[C@@H](CO)C(=O)O)[C@@H](C)O)C(C)C)[C@@H](C)CC)C(C)C)[C@@H](C)CC` [LL-37, reference compound], the hemolysis [1, 12] was “negligible hemolysis” and the hemolysis ([1]; peptide 100 μg/ml, 2% human RBCs (EDTA), 1 h) was “approximately 40%”.

With `CC[C@H](C)[C@H](NC(=O)[C@H](CCCCN)NC(=O)[C@H](CC(=O)O)NC(=O)[C@H](CC(C)C)NC(=O)[C@H](CC(C)C)NC(=O)[C@H](CCC(N)=O)NC(=O)CNC(=O)[C@H](C)NC(=O)[C@H](CC(C)C)NC(=O)[C@H](CC(N)=O)NC(=O)[C@H](CCCCN)NC(=O)[C@H](C)NC(=O)[C@H](C)NC(=O)[C@H](CC(N)=O)NC(=O)[C@H](CCCCN)NC(=O)[C@@H](NC(=O)[C@@H](NC(=O)[C@H](CC(=O)O)NC(=O)[C@H](CCSC)NC(=O)[C@H](CC(C)C)NC(=O)CN)[C@@H](C)O)C(C)C)C(=O)N[C@@H](CCCCN)C(=O)N[C@H]1CSSC[C@@H](C(=O)O)NC(=O)CNC(=O)[C@H]([C@@H](C)O)NC(=O)[C@H]([C@@H](C)CC)NC(=O)[C@H](CCCCN)NC1=O` [PHNX-8] (H-GLMDTVKNAAKNLAGQLLDKIKCKITGC-OH; disulfide 23-28 (inferred); N-terminus and C-terminus assumed) the “growth inhibition in the screen (in words)” value ([2]; E. coli 4157) was “showed activity”, the bacterial survival ([2]; antibiotic susceptible E. coli 4157) was roughly 0% and the “growth inhibition in the screen (in words)” value ([3]; peptide 100 μg/ml, MDR E. coli 51659) was “showed activity”. For the same molecule, the bacterial survival ([3]; peptide 100 μg/ml, antibiotic resistant E. coli O157:H7 51659) was roughly 0%, the MIC [4]; 4157 was 32 µg/mL (≈ 10.9 µM) and the MIC [5] was “without any activity; also recorded: no activity”. For the same molecule, the MIC [6] was “without any activity; also recorded: no activity” and the hemolysis [1] was “higher hemolytic activity”.

With FGKLLKLGKGLGG [PHNX-2] the EC50 [7] was “no activity” and the EC50 [8] was “no activity”.

For FGKLLKLGKGLKG [PHNX-3], the EC50 [7] was “no activity” and the EC50 [8] was “no activity”.

FIGAIASYLKKFR [PHNX-6] showed an EC50 [8] of 7.95 µg/mL.

With FLIKILKGGKGGK [PHNX-5] the EC50 [8] was greater than 10 µg/mL and the hemolysis [1] was “higher hemolytic activity”.

In the case of FLLKLGLGKKKLL [PHNX-4], the hemolysis [1] is reported as “higher hemolytic activity”.

In the case of GVVDIIKGAGKKFAKGLAGKIANKK [PHNX-7], the MIC [9] is reported as greater than 64 µg/mL, the EC50 [8] is reported as 2.09 µg/mL and the hemolysis [1] is reported as “higher hemolytic activity”.

With “KRFKKFFRKLKKSVKKRAKEFFKKPRVIGVSIPF [BF-CATH, reference compound]” the bactericidal activity [3] was 100%, the bactericidal activity [10] was 100% and the MIC ([4]; antibiotic susceptible E. coli 4157, Mueller Hinton Broth) was “strong antimicrobial activity”. For the same molecule, the MIC [9] was “strong antimicrobial activity”, the MIC [5] was “not very effective” and the MIC [6] was “not very effective”. The “previously reported antimicrobial activity level” value [11] was 2.3 µg/mL.

With “VRLIVAVRIWRR-NH2 (C-terminus assumed) [IDR-1018, reference compound]” the bactericidal activity [3] was 100%, the bactericidal activity [10] was 100% and the hemolysis [1, 12] was “negligible hemolysis”.
